Like-named read-outs stand apart in the source and are kept apart here.
Target: T1, (Homo sapiens, UniProt P03372)
T1 sequence (P03372 1-595): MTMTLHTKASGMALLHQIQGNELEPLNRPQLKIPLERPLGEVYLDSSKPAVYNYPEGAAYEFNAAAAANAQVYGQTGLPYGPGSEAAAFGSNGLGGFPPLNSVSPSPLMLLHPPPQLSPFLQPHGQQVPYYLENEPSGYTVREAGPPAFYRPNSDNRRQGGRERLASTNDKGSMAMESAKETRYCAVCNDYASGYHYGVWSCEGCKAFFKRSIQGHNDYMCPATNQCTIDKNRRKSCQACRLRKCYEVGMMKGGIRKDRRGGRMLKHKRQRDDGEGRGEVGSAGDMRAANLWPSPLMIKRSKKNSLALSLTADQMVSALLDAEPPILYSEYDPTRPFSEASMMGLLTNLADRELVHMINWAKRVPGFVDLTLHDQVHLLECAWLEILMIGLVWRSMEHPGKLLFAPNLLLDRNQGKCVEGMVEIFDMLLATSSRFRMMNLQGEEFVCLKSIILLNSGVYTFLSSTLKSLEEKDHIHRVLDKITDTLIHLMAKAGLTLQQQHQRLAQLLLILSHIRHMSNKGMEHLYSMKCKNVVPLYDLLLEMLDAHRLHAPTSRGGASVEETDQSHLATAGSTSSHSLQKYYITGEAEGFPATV
Test: in vitro competitive binding assay (radio-ligand displacement), estradiol binding activity

[1] = Table 1, unsubstituted reference monomers, displacement of radio-ligand from ERR-α, read-out: IC50

Description: The (IC50) of a particular substance can be determined using conventional competition binding assays. In this type of assay, a single concentration of radioligand (such as an agonist) is used in every assay tube. The ligand is used at a low concentration, usually at or below its Kd value. The level of specific binding of the radioligand is then determined in the presence of a range of concentrations of other competing non-radioactive compounds (usually antagonists), in order to measure the potency with which they compete for the binding of the radioligand. Competition curves can also be computer-fitted to a logistic function as described under direct fit.
IC50 binding concentrations for the alpha in vitro estradiol receptors were tested. Four separate sets of tests were run using a standard competitive binding assay. Samples were dissolved in either ethanol or DMSO. The various compounds were then tested at up to seven different concentrations for each test compound. Each of those tests was run in triplicate. Tests were conducted by displacement of a radio-ligand. For each set of tests a 17P-estradiol control sample was run to ensure proper binding of the natural hormone under the test conditions. Specifically, the IC50 values described herein were determined from in-vitro experiments of the compound binding to ERR-α.

| IC50 [1] [µM] | Structure (SMILES) | also measured |
| --- | --- | --- |
| 18.7 | COC(=O)CCC(C)(c1ccc(O)cc1)c1ccc(O)cc1 [Reference ID 10, Methyl 4,4-bis(4-hydroxyphenyl)pentanoate] | – |
| 1.27 | Cc1cc(C2(c3ccc(O)c(C)c3)CCCCC2)ccc1O [Reference ID 2, 4,4′-(cyclohexane-1,1-diyl)bis(2-methylphenol)] | – |

Second part, the compound before the results:

| Structure (SMILES) | IC50 [1] [µM] | also measured |
| --- | --- | --- |
| CC(C)(c1ccc(O)cc1)c1ccc(C(C)(C)c2ccc(O)cc2)cc1 [Reference ID 7, 4,4′-(1,4-phenylenebis(propane-2,2-diyl))diphenol] | – | IC50: 3.92 µM |
| COc1cc(C(C)(C)c2ccc(O)c(OC)c2)ccc1O [Example 1A, 4,4′-(propane-2,2-diyl)bis(2-methoxyphenol)] | – | IC50 (Table 2, substituted monomers, displacement of radio-ligand from ERR-α, read-out: IC50): > 250 µM; estradiol binding activity (with the LBD cavity of ERR-α, in words): reduced or no detectable estradiol binding activity |
| CCC(CC)(c1ccc(O)cc1)c1ccc(O)cc1 [Reference ID 9, 4,4′-(pentane-3,3-diyl)diphenol] | 0.0056 | – |
